Measured values reported in ChEMBL document CHEMBL1201862, “PubChem BioAssay data set” (2004).
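Growth conditions: 96-well plates. Treatment: test compound, 48 hours, 5 concentrations. Analysis: linear interpolation between bracketing concentrations; unreached endpoints set to highest concentration. GI50 is the concentration that inhibits growth by half.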 The source made the active and inactive calls. Cut-off read from the data, not from the text of the source: active = GI50 up to about 1.1 µM and inactive = higher.

Key:
Assay in all cases: inhibition of tumour cell growth, NCI panel, 48 h
DMS-273 = system: DMS-273
SNB-75 = system: SNB-75
OVCAR-8 = system: OVCAR-8
NCI-H23 = system: NCI-H23
HOP-62 = system: HOP-62
U-251 = system: U-251
COLO 205 = system: COLO 205
HCT-116 = system: HCT-116
HCC 2998 = system: HCC 2998
SK-MEL-2 = system: SK-MEL-2
LOX IMVI = system: LOX IMVI
SK-MEL-28 = system: SK-MEL-28
NCI-H460 = system: NCI-H460
MOLT-4 = system: MOLT-4
DLD-1 = system: DLD-1
OVCAR-4 = system: OVCAR-4
M14 = system: M14

Row | Compound | GI50 (DMS-273) | GI50 (SNB-75) | GI50 (OVCAR-8) | GI50 (NCI-H23) | GI50 (HOP-62) | GI50 (U-251) | GI50 (COLO 205) | GI50 (HCT-116) | GI50 (HCC 2998) | GI50 (SK-MEL-2) | GI50 (LOX IMVI) | GI50 (SK-MEL-28) | GI50 (NCI-H460) | GI50 (MOLT-4) | GI50 (DLD-1) | GI50 (OVCAR-4) | GI50 (M14)
1 | O=C(/C=C/c1cccc([N+](=O)[O-])c1)c1cccnc1 | 25.3 µM (inactive) | > 52.8 µM (inactive) | 34.6 µM (inactive) | 17.7 µM (inactive) | > 100 µM (inactive) | 20.6 µM (inactive) | 35.6 µM (inactive) | 16.7 µM (inactive) | 36.5 µM (inactive) | > 100 µM (inactive) | 21.2 µM (inactive) | 23.6 µM (inactive) | 50.7 µM (inactive) | 26.4 µM (inactive) | 20.3 µM (inactive) | > 91 µM (inactive) | 13.7 µM (inactive)
2 | CCc1cccc(C(C)CC)c1NC(=O)CC1C(=O)Nc2ccccc2[S+]1[O-] (stereo not drawn) | 34 µM (inactive) | 22.4 µM (inactive) | 95.7 µM (inactive) | 58.2 µM (inactive) |  | 14.9 µM (inactive) |  | 31.3 µM (inactive) | > 100 µM (inactive) | 40.5 µM (inactive) | 28.2 µM (inactive) | 26.1 µM (inactive) | 29.4 µM (inactive) | 14.9 µM (inactive) | 32.8 µM (inactive) | 18.3 µM (inactive) | 22 µM (inactive)
3 | O=C(CNc1nncs1)NO | > 100 µM (inactive) | > 100 µM (inactive) | > 100 µM (inactive) | > 100 µM (inactive) | > 100 µM (inactive) | > 100 µM (inactive) | > 100 µM (inactive) | > 100 µM (inactive) | > 100 µM (inactive) | > 100 µM (inactive) |  | > 100 µM (inactive) | > 100 µM (inactive) | > 100 µM (inactive) | > 100 µM (inactive) | > 100 µM (inactive) | > 100 µM (inactive)
4 | O=c1cccccc1NCCCCNc1cccccc1=O | > 100 µM (inactive) | > 100 µM (inactive) | > 100 µM (inactive) | 67.8 µM (inactive) | > 100 µM (inactive) | > 100 µM (inactive) | > 100 µM (inactive) | > 100 µM (inactive) | 85.3 µM (inactive) | > 100 µM (inactive) | > 100 µM (inactive) | 71.1 µM (inactive) | > 100 µM (inactive) | 62.1 µM (inactive) | 57.3 µM (inactive) | 50.8 µM (inactive) | 55.7 µM (inactive)
5 | Nc1c(Cl)ncnc1NCCCCCCCCCCCCNc1ncnc(Cl)c1N | 1.74 µM (inactive) | 1.28 µM (inactive) | 1.9 µM (inactive) | < 0.01 µM (active) | 0.254 µM (active) | 0.0857 µM (active) | 8.24 µM (inactive) | 0.0469 µM (active) | 3.72 µM (inactive) | 2.35 µM (inactive) | < 0.01 µM (active) | 2.14 µM (inactive) | 1.9 µM (inactive) | 0.167 µM (active) | 2.73 µM (inactive) | 1.99 µM (inactive) | 3.19 µM (inactive)
6 | CN[C@H](C)[C@@H](OC)c1ccccc1 | > 100 µM (inactive) | 61.4 µM (inactive) | > 100 µM (inactive) |  | > 100 µM (inactive) | > 100 µM (inactive) | > 100 µM (inactive) | > 100 µM (inactive) | > 100 µM (inactive) | > 100 µM (inactive) | > 100 µM (inactive) | > 100 µM (inactive) | > 100 µM (inactive) | > 100 µM (inactive) | > 100 µM (inactive) | > 100 µM (inactive) | > 100 µM (inactive)
